{"source": "patent US20120149775A1", "about": "“METHODS FOR PREVENTING AND IMPROVING SKIN ELASTIC PROPERTY LOSS” (SHISEIDO COMPANY, LTD., priority 2010, published 2012)", "type_in_all_cases": "cell-based", "key": {"[1]": {"tested_on": "mouse 3T3-L1 cell", "assay": "Mouse fibroblast proliferation (alamar Blue)", "details": "48 hours", "description": "The cell employed was a mouse 3T3-L1 cell. This cell was inoculated. at 3×10^4 cells/mL to a commercially available 24-well culture plate (353047, FALCON, Becton, Dickinson and Company Japan), where it was cultured in a commercially available cell culture medium (D-MEM, 11885084, GIBCO, Life Technologies Japan Ltd.) supplemented with 10% bovine serum (16010159, GIBCO, Life Technologies Japan Ltd.). The cell was cultured for about 6 hours in 5% CO2 and saturated water vapor atmosphere at 37° C. Thereafter, the culture medium for culturing the mouse fibroblast was switched to a medium which was the above-mentioned cell culture medium supplemented with 0.5% bovine serum (hereinafter referred to as “mouse fibroblast proliferation evaluation medium”), where the mouse fibroblast was cultured for 12 hours in 5% CO2 and saturated water vapor atmosphere at 37° C. When investigating the effects of saturated and unsaturated fatty acids on the proliferation of the fibroblast, 5 μM and 10 μM palmitic acid (S-33, Wako Pure Chemical Industries, Ltd.), 5 μM and 10 μM oleic acid (07501, Sigma Aldrich Japan K.K.) or 1 μM, 3 μM and 10 μM stearic acid ([…], Sigma Aldrich Japan. K.K.) was added after 12 hours to the mouse fibroblast proliferation evaluation medium), and the fibroblast was cultured for 48 hours in 5% CO2 and saturated water vapor atmosphere at 37° C. As a control, the cell was cultured in a culture medium without these saturated fatty acids and unsaturated fatty acid. […] The cell proliferation rate (%) was calculated as a percentage of the quotient obtained by dividing the fluorescent intensity of the alamar Blue under each experiment condition by the fluorescent intensity in the control group supplemented with no saturated or unsaturated fatty acids."}, "[2]": {"tested_on": "type I collagen α chain gene expression", "assay": "Type I collagen α chain gene expression in mouse fibroblast (real-time PCR)", "details": "for suppressive effect on the gene expression of type I collagen α chain: data not shown", "description": "(§1) The cell culture and the addition of palmitic acid were conducted similarly to Example 1. The mouse fibroblast was inoculated to and incubated in a commercially available 12-well culture plate (353043, FALCON, Becton, Dickinson and Company Japan) at 3×10^4 cells/mL. The culture medium was removed using an aspirator, and each well was washed twice with each 2 ml of PBS. An RNA was extracted from each cell in each well using an RNeasy Protect Kit (74104, Qiagen) according to Manufacturer's instructions. A cDNA was produced according to a standard method and used in a real-time PCR. This real-time PCR employed LightCycler (registered trademark) FastStart DNA Master^PLUS SYBR Green I (Catalog No. 03 515 885 001, Roche Diagnostic K.K.). For amplifying type I collagen α chain, elastin, matrix metalloproteinase 13 and 28S rRNA genes, the forward and reverse primers of SEQ ID NO: 1 and 2, SEQ ID NO: 3 and 4, SEQ ID NO: 5 and 6 and SEQ ID NO: 7 and 8, respectively, were employed. The PCR was conducted under a reaction condition involving 1 cycle of 95° C. for 10 minutes and 35 cycles of 95° C. for 15 seconds, 60° C. for 5 seconds and 72° C. for 5 seconds. The expression levels of type I collagen α chain, elastin and matrix metalloproteinase 13 gene were analyzed by using LightCycler Software Ver. 3.5 (Roche Diagnostic K.K.) and normalized on the basis of the expression level of 28S rRNA. The gene expressions level of the type I collagen α chain, elastin and matrix metalloproteinase 13 were calculated as percentages of the quotients obtained by dividing the gene expression rates (%) under each experimental condition by the gene expression levels in the control groups containing no palmitic acid."}, "[3]": {"tested_on": "elastin gene expression", "assay": "Elastin gene expression in mouse fibroblast (real-time PCR)", "details": "for suppressive effect on the gene expression of elastin: data not shown", "description": "as §1"}, "[4]": {"tested_on": "matrix metalloproteinase 13 gene expression", "assay": "Matrix metalloproteinase 13 gene expression in mouse fibroblast (real-time PCR)", "details": "for promotive effect on the gene expression of matrix metalloproteinase 13: data not shown", "description": "as §1"}, "[5]": {"tested_on": "type I collagen α chain gene expression", "assay": "Type I collagen α chain gene expression in human fibroblast (real-time PCR)", "details": "10 μM and 30 μM, dependent on concentration (FIG. 8)", "description": "(§2) The culture medium was removed using an aspirator, and each well was washed twice with each 2 ml of PBS. An RNA was extracted from each cell in each well using an RNeasy Protect Kit (74104, Qiagen) according to Manufacturer's instructions. A cDNA was produced according to a standard method and used in a real-time PCR. This real-time PCR employed LightCycler (registered trademark) FastStart DNA Master^PLUS SYBR Green I (Catalog No. 03 515 885 001, Roche Diagnostic K.K.). […] The expression levels of type I collagen α chain, elastin and matrix metalloproteinase 13 gene were analyzed by using LightCycler Software Ver. […] The gene expressions level of the type I collagen α chain, elastin and matrix metalloproteinase 13 were calculated as percentages of the quotients obtained by dividing the gene expression rates (%) under each experimental condition by the gene expression levels in the control groups containing no palmitic acid. […] The quantification of gene expression was conducted similarly to Example 2. […] The % gene expressions of the type I collagen α chain, elastin and matrix metalloproteinase 1 were calculated as percentages of the quotients obtained by dividing the gene expression levels under each experimental condition by the gene expression levels in the control groups containing no palmitic acid."}, "[6]": {"tested_on": "elastin gene expression", "assay": "Elastin gene expression in human fibroblast (real-time PCR)", "details": "3 μM to 30 μM, dependent on concentration (FIG. 9)", "description": "as §2"}, "[7]": {"tested_on": "mouse fibroblast", "assay": "Effect of EPA and palmitic acid on fibroblast proliferation (alamar Blue)", "details": "palmitic acid at 10 μM alone (FIG. 11)", "description": "The cell employed was a mouse 3T3-L1 cell. This cell was inoculated. at 3×10^4 cells/mL to a commercially available 24-well culture plate (353047, FALCON, Becton, Dickinson and Company Japan), where it was cultured in a commercially available cell culture medium (D-MEM, 11885084, GIBCO, Life Technologies Japan Ltd.) supplemented with 10% bovine serum (16010159, GIBCO, Life Technologies Japan Ltd.). The cell was cultured for about 6 hours in 5% CO2 and saturated water vapor atmosphere at 37° C. Thereafter, the culture medium for culturing the mouse fibroblast was switched to a medium which was the above-mentioned cell culture medium supplemented with 0.5% bovine serum (hereinafter referred to as “mouse fibroblast proliferation evaluation medium”), where the mouse fibroblast was cultured for 12 hours in 5% CO2 and saturated water vapor atmosphere at 37° C. […] The cell proliferation rate (%) was calculated as a percentage of the quotient obtained by dividing the fluorescent intensity of the alamar Blue under each experiment condition by the fluorescent intensity in the control group supplemented with no saturated or unsaturated fatty acids. […]"}, "[8]": {"tested_on": "matrix metalloproteinase 1 gene expression", "assay": "Matrix metalloproteinase 1 gene expression in human fibroblast (real-time PCR)", "details": "10 μM and 30 μM, dependent on concentration (FIG. 10)", "description": "as §2"}, "[9]": {"tested_on": "human fibroblast", "assay": "Human fibroblast proliferation (alamar Blue)", "details": "5 μM to 30 μM, dependent on concentration (FIG. 7)", "description": "Thereafter, alamar Blue (Trade mark, DAL1025, Invitrogen, Life Technologies Japan Ltd.) was added to the culture medium at a final concentration of 10%, and its supernatant was examined for the fluorescent intensity 2 hours later with an excitation wavelength of 544 nm and a fluorescent intensity of 590 nm in accordance with the manufacture's instruction. The cell proliferation rate (%) was calculated as a percentage of the quotient obtained by dividing the fluorescent intensity of the alamar Blue under each experiment condition by the fluorescent intensity in the control group supplemented with no saturated or unsaturated fatty acids. The cell culture, the addition of palmitic acid and the determination of the % of proliferation of the fibroblast were conducted similarly to Example 1. The human fibroblast (CC-2509, Lonza Japan Ltd.) was incubated for 6 hours in a commercially available cell culture medium (D-MEM, 11885084, GIBCO, Life Technologies Japan Ltd.) supplemented with 10% of fetal bovine serum (FBS) (Biowest). Thereafter, the culture medium for incubating the human fibroblast was switched to the cell culture medium supplemented with 0.5% of fetal bovine serum (hereinafter referred to as “human fibroblast proliferation evaluation medium”) and the human fibroblast was incubated at 37° C. and 5% CO2 under a saturated water vapor atmosphere for 12 hours. […]"}}}
{"smiles": "CCCCCCCC/C=C\\CCCCCCCC(=O)O", "note": "[oleic acid]", "values": [{"measurement": "cell proliferation", "setting": "[1]; 5 μM and 10 μM, vs control (FIG. 2)", "result": "statistically significant reduction"}, {"measurement": "suppressive effect on the gene expression of type I collagen α chain", "setting": "[2]", "result": "did not have a suppressive effect"}, {"measurement": "suppressive effect on the gene expression of elastin", "setting": "[3]", "result": "did not have a suppressive effect"}, {"measurement": "promotive effect on the gene expression of matrix metalloproteinase 13", "setting": "[4]", "result": "did not have"}]}
{"smiles": "CCCCCCCCCCCCCCCC(=O)O", "note": "[palmitic acid]", "values": [{"measurement": "cell proliferation", "setting": "[1]; 10 μM, vs control (FIG. 1)", "result": "statistically significant reduction"}, {"measurement": "type I collagen α chain gene expression", "setting": "[5]", "result": "statistically significant reduction"}, {"measurement": "type I collagen α chain gene expression", "setting": "[2]; 10 μM, vs control (FIG. 4)", "result": "statistically significant reduction"}, {"measurement": "elastin gene expression", "setting": "[6]", "result": "statistically significant reduction"}, {"measurement": "cell proliferation", "setting": "[7]", "result": "reduced markedly"}, {"measurement": "matrix metalloproteinase 1 gene expression", "setting": "[8]", "result": "statistically significant increase"}, {"measurement": "cell proliferation", "setting": "[9]", "result": "statistically significant reduction"}, {"measurement": "elastin gene expression", "setting": "[3]; 10 μM, vs control (FIG. 5)", "result": "statistically significant reduction"}, {"measurement": "matrix metalloproteinase 13 gene expression", "setting": "[4]; 10 μM, vs control (FIG. 6)", "result": "statistically significant increase"}]}
{"smiles": "CCCCCCCCCCCCCCCCCC(=O)O", "note": "[stearic acid]", "values": [{"measurement": "cell proliferation", "setting": "[1]; 1 μM to 10 μM, vs control (FIG. 3)", "result": "no statistically significant reduction"}, {"measurement": "suppressive effect on the gene expression of type I collagen α chain", "setting": "[2]", "result": "did not have a suppressive effect"}, {"measurement": "suppressive effect on the gene expression of elastin", "setting": "[3]", "result": "did not have a suppressive effect"}, {"measurement": "promotive effect on the gene expression of matrix metalloproteinase 13", "setting": "[4]", "result": "did not have"}]}
